Measurements published in ChEMBL document CHEMBL1137421, “3-Benzimidazol-2-yl-1H-indazoles as potent c-ABL inhibitors” (Bioorg Med Chem Lett, 2006).

What was measured:
[1] = target: Tyrosine-protein kinase ABL1 (Homo sapiens, UniProt P00519)
[2] = target: Bcr/Abl fusion protein (Homo sapiens, UniProt P00519); assay type: functional, cell-based, K562
Chain of Bcr/Abl fusion protein (P00519 whole entry, the tested form may be a part): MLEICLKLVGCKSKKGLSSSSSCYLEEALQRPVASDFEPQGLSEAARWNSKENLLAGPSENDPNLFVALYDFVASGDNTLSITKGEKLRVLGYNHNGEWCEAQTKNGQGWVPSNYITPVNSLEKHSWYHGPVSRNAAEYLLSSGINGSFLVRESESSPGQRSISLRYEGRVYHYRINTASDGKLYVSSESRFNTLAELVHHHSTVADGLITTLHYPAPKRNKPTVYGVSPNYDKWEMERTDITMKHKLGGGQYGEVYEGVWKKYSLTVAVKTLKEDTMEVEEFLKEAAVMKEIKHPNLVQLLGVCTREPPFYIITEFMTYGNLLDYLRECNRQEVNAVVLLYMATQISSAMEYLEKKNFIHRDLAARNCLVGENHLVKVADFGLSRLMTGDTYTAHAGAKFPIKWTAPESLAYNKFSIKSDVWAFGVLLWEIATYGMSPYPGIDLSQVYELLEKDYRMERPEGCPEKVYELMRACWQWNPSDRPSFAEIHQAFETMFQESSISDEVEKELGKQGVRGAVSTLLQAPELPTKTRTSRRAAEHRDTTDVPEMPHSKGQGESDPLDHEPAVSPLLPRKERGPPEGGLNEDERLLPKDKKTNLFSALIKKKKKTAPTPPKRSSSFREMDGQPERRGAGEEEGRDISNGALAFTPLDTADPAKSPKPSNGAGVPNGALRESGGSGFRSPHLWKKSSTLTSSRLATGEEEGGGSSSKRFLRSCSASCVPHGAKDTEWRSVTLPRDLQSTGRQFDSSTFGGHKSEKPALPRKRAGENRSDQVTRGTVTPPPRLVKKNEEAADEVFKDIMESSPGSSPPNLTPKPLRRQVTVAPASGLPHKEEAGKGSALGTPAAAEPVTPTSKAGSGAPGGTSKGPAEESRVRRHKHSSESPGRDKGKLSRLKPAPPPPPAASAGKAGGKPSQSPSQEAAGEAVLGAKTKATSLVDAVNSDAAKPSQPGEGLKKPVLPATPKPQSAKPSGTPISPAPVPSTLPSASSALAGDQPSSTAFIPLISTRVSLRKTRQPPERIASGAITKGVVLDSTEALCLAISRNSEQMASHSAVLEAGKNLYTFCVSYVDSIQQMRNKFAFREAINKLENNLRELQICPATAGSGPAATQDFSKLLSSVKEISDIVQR
Chain of Bcr/Abl fusion protein (P11274 whole entry, further chain, the tested form may be a part): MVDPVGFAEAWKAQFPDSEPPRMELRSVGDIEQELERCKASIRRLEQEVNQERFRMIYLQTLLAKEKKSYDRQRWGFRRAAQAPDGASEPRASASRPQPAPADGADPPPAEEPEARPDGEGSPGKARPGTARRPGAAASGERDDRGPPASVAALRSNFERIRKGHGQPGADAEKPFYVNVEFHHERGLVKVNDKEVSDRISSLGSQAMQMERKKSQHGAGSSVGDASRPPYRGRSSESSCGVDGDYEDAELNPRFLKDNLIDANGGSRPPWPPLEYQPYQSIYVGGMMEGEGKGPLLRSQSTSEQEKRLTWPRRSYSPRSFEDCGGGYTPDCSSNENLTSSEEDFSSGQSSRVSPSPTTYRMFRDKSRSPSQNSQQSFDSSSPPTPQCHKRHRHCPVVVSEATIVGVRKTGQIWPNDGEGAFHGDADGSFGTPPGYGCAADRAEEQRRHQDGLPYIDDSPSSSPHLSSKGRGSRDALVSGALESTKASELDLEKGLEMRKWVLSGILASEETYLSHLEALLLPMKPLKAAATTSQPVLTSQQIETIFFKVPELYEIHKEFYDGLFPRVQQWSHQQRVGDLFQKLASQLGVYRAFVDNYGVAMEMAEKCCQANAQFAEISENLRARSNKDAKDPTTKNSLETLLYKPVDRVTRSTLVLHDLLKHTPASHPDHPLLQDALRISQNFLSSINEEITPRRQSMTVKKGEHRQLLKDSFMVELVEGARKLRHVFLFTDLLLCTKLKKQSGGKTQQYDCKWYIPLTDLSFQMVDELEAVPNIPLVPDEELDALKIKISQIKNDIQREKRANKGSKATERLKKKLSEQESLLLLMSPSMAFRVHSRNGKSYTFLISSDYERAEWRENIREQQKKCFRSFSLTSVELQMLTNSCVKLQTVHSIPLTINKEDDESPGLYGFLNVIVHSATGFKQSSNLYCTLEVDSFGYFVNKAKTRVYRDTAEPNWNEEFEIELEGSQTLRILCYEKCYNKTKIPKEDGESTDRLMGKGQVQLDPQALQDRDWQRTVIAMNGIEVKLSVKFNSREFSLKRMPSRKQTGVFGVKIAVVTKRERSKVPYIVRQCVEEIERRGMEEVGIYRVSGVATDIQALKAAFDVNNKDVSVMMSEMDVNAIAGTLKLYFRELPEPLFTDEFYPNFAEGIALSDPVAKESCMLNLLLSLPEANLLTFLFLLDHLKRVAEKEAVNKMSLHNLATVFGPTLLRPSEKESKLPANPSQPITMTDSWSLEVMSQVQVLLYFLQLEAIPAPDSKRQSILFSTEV

Chain of Tyrosine-protein kinase ABL1 (P00519 whole entry, the tested form may be a part): as the sequence (P00519 whole entry, the tested form may be a part) above

Compound | IC50 [1] [nM] | EC50 [2] [nM]
COc1ccc(Oc2ccc3[nH]nc(-c4nc5cc(N6CCC(N7CCCCC7)CC6)ccc5[nH]4)c3c2)cc1 | 220 | 
COc1ccc2[nH]nc(-c3nc4ccc(N5CCC(N6CCCCC6)CC5)cc4[nH]3)c2c1 | 230 | 
c1ccc(COc2ccc3c(-c4nc5ccc(N6CCC(N7CCCCC7)CC6)cc5[nH]4)n[nH]c3c2)cc1 | 200 | 
c1ccc(CN2CCC(Nc3ccc4[nH]nc(-c5nc6cc(N7CCC(N8CCCCC8)CC7)ccc6[nH]5)c4c3)CC2)cc1 | 7 | 70
COc1cc2[nH]nc(-c3nc4ccc(N5CCC(N6CCCCC6)CC5)cc4[nH]3)c2cc1OCc1ccccc1 | 3 | 
c1coc(CNc2ccc3[nH]nc(-c4nc5cc(N6CCC(N7CCCCC7)CC6)ccc5[nH]4)c3c2)c1 | 60 | 30
COc1ccccc1Oc1ccc2[nH]nc(-c3nc4cc(N5CCC(N6CCCCC6)CC5)ccc4[nH]3)c2c1 | 20 | 
c1ccc(Oc2ccc3[nH]nc(-c4nc5ccc(N6CCC(N7CCCCC7)CC6)cc5[nH]4)c3c2)cc1 | 30 | 
c1ccc(COc2cc3[nH]nc(-c4nc5cc(N6CCC(N7CCCCC7)CC6)ccc5[nH]4)c3cc2OCc2ccccc2)cc1 | 900 | 
c1csc(CNc2ccc3[nH]nc(-c4nc5cc(N6CCC(N7CCCCC7)CC6)ccc5[nH]4)c3c2)n1 | 10 | 10
c1ccc(COc2ccc3[nH]nc(-c4nc5ccc(N6CCC(N7CCCCC7)CC6)cc5[nH]4)c3c2)cc1 | 60 | 970
O=C(Nc1ccc2[nH]nc(-c3nc4ccc(N5CCC(N6CCCCC6)CC5)cc4[nH]3)c2c1)c1ccco1 | 150 | 560
CC(C)(C)NC(=O)Nc1ccc2[nH]nc(-c3nc4ccc(N5CCC(N6CCCCC6)CC5)cc4[nH]3)c2c1 | 30 | 360
c1ccc2c(-c3nc4ccc(N5CCC(N6CCCCC6)CC5)cc4[nH]3)n[nH]c2c1 | 600 | 
COc1cccc(Oc2ccc3[nH]nc(-c4nc5cc(N6CCC(N7CCCCC7)CC6)ccc5[nH]4)c3c2)c1 | 60 | 
c1ccc(CNc2ccc3[nH]nc(-c4nc5ccc(N6CCC(N7CCCCC7)CC6)cc5[nH]4)c3c2)cc1 | 130 | 1800
